Experiments:
rTRPV1 = biological target: T1, rTRPV1 (Rattus norvegicus, UniProt O35433); test: whole-cell patch clamp selectivity, HEK 293 cells overexpressing rTRPV1; format: cell-based; details: HEK293, with agonist, solutions without Ca2+, read-out: % of the current of rTRPV1 inhibited
T1 construct: expressed in transfected cells; host or cells: HEK293, transient transfection, pMO vector
Procedure: Human embryonic kidney 293 (HEK293; catalog number CRL-1573) cells were cultured in Dulbecco's modified Eagle's medium (Invitrogen) supplemented with 10% fetal bovine serum and 1% penicillin-streptomycin at 37° C. and 5% CO2. Constructs cloned in pMO (a pcDNA3-modified vector) were co-transfected with GFP-pMO, using Lipofectamine 2000 (Invitrogen) according to the manufacturer's instructions. Macroscopic currents in the whole-cell patch clamp configuration were recorded 18-24 h post-transfection. The extracellular solution contained 140 mM NaCl, 6 mM KCl, 2 mM MgCl2, 10 mM HEPES, and 10 mM glucose (pH 7.4). Pipettes were made of borosilicate glass (outer diameter, 1.5 mm; inner diameter, 1.10 mm; Sutter Instruments) and fire-polished with a resistance between 2.8 and 4.0 megaohms when filled with an intracellular solution that contained 140 mM CsCl, 5 mM EGTA, and 10 mM HEPES, pH 7.2. Currents were recorded with a Multiclamp 700B amplifier (Molecular Devices) using a 1-s ramp from −100 to 100 mV. […] Data were acquired with a sampling rate of 20 kHz, low-pass filtered (10 kHz), and analyzed offline using Clampfit v10.4.2.0 (Molecular Devices). […]

[1] = test system: pilocarpine-induced seizures; test: mouse pilocarpine model of SE; format: in vivo, mice
Procedure: (FIG. 7A) Mice were treated by pilocarpine (220 mg/kg, i.p.) for seizure induction, and behavioral seizures were scored every 5 min based a modified Racine scale. After stage-2 behavioral seizures were established (usually about 15-20 min after pilocarpine injection), mice were treated by either vehicle or compound 22 (100 mg/kg, i.p.). […] (FIG. 7B) Maximal seizure scores in mice after pilocarpine injection (p<0.0001, t-test). (FIG. 7C) Latency to partial (stage-3) seizures (p=0.0002, t-test). (FIG. 7D) Latency to generalized (stage-4) seizures (p=0.0001, t-test). (FIG. 7E) Percentage of animals that experienced stage-5 seizures or SE (p<0.0001, Fisher's exact test). (FIG. 7F) Percentage of animals survived pilocarpine-induced seizures (p=0.1649, Fisher's exact test). Data are presented as mean+/±SEM.
Mouse Pilocarpine Model of SE. Mice were first injected with methylscopolamine and terbutaline (2 mg/kg each in saline, i.p.) to minimize the unwanted effects of pilocarpine in the periphery. Thirty minutes later, pilocarpine (250 mg/kg in saline, freshly prepared, i.p.) was injected to induce seizures in mice. To determine the anti-seizure effects of compound 22, compound 22 was administered either before pilocarpine injection or after the behavioral seizures were well established. Control mice received methylscopolamine and terbutaline, followed by saline injection instead of pilocarpine. Behavioral seizures were classified using a modified Racine scale as we previously described (Table 5).^22-25 SE was defined by non-intermittent seizure activity (stage 5), which was indicated by continuous generalized clonic seizures without returning to lower-stage seizures (Table 5).

[2] = brain permeability and half-life after systemic administration in C57BL/6 mice; format: in vivo
Procedure: The brain permeability of compound 22 was evaluated with systemic administration (20 mg/kg, i.v.) in C57BL/6 mice. Blood samples were collected at nine time points after compound administration: 5 min, 15 min, 30 min, 1 hr, 2 hr, 4 hr, 8 hr, 16 hr, and 24 hr. Brain homogenates were then extracted and analyzed for concentrations of compound 22 by liquid chromatography-mass spectrometry (LC-MS). The half-life (T½) in the brain was calculated by GraphPad Prism software.

[3] = single dose 100 mg/kg, i.p after onset of seizures (stage 2)

T1 sequence (O35433 whole entry): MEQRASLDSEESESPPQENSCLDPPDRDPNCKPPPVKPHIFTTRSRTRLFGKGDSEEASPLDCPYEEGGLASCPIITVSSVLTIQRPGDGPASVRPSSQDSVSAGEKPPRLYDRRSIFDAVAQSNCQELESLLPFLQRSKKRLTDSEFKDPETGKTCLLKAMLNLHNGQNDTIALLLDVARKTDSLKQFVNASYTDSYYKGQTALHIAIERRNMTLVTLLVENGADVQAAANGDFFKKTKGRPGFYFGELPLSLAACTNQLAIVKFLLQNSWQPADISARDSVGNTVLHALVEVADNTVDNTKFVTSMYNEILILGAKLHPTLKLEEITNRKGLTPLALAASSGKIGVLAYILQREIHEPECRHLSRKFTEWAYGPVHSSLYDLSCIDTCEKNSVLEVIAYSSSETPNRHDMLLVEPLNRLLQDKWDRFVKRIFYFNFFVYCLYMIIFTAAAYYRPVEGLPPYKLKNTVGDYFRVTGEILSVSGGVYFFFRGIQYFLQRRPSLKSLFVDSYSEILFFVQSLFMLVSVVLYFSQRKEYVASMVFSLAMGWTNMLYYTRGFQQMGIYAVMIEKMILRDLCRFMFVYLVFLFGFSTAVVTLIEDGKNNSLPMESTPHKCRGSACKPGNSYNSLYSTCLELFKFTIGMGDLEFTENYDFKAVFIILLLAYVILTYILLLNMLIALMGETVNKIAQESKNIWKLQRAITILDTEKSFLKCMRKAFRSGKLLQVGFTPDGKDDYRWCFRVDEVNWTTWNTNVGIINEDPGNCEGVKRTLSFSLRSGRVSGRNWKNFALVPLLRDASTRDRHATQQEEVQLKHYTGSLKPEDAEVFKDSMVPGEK

CCNC(=O)c1cnn(-c2ccc(-n3ccc(Cl)c(Cl)c3=O)cc2)c1C(F)(F)F [Compound 22]
inhibition at 10 µM (rTRPV1): < 5%
scores of pilocarpine-induced seizures (modified Racine scale) ([1]; 100 mg/kg, i.p. after stage-2 seizures established, vs vehicle): reduced the scores of pilocarpine-induced seizures
electrographic seizures (electroencephalography) ([1]; after pilocarpine injection): diminished electrographic seizures
maximal seizure scores during a 90-minute observation [1, 3]: decreased
overall seizure intensity [1, 3]: decreased the overall seizure intensity
initiation of behavioral seizures ([1]; systemic treatment before pilocarpine injection): significantly impaired the initiation of behavioral seizures
Kp at 1 h ([2]; C57BL/6, mouse, brain/plasma, iv, 20 mg/kg, i.v., 1 h after injection, read-out: brain-to-plasma ratio): ~0.15
half-life ([2]; C57BL/6, mouse, plasma, iv, 20 mg/kg, i.v., read-out: plasma T½ (converted)): ~4 h
duration of brain concentration above TRPC3 IC50 ([2]; one-dose injection): 18 to 20 h
